Reference: patent US6166070A, “Kodaistatins A, B, C and D, a process for their production and their use” (Aventis Pharma Deutschland GmbH, priority 1997, dated 2000)
Converted amounts (≈) assume the structure as drawn. Like-named read-outs stand apart in the source and are kept apart here.

Legend:
[1] = target: T1, rat liver microsomal glucose-6-phosphate translocase (Rattus norvegicus, UniProt F7EWB7); assay: inhibition of rat liver microsomal glucose-6-phosphate translocase (colorimetric assay, untreated and Triton X-100 disrupted microsomes); assay type: biochemical
T1 construct: rat liver microsomal glucose-6-phosphate translocase; from tissue; host or cells: rat liver microsomes (untreated and Triton X-100 disrupted)
T1 sequence (F7EWB7 1-429): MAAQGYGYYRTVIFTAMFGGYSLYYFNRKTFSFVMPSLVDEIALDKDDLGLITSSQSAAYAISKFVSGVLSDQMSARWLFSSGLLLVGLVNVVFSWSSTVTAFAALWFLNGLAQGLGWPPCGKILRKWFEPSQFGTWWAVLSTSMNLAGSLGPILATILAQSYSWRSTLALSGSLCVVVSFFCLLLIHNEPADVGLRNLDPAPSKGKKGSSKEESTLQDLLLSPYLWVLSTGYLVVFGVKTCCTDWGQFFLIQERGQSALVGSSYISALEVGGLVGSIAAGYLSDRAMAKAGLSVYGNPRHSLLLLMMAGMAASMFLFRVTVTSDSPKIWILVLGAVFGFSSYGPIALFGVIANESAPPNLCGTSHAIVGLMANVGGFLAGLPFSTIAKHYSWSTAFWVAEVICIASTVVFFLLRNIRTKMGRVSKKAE
Description: (§1) The fermentation is preferably carried out for 40 to 90 hours when an optimal yield of the compounds of the present invention are obtained. It is particularly preferred to carry out the fermentation for 45-70 hours under submerged conditions for example in shake flasks as well as in laboratory fermenters. If desired, antifoam agents like Desmophen® (Polypropylene oxide, Bayer A G, Leverkusen, Germany) may be used in the fermentation process. The progress of fermentation and formation of Kodaistatins A, B, C and D can be detected by measuring the […] in untreated and Triton X-100® disrupted rat liver microsomes in microliter plates at room temperature using a colorimetric assay as described in Methods in Enzymology, 174,58-67 (1989) with some modification and by HPLC In the resulting culture broth, kodaistatin B, C and D are present as minor compounds, and kodaistatins A as a major compound. Thus, the active crude material can be recovered by extraction of mycelium with water miscible solvents such as methanol, ethanol and acetone, and extraction of the culture filtrate with a water immiscible solvent such as ethyl acetate, dichioromethane, chloroform or butanol at pH 5-8 or by hydrophobic interaction chromatography using polymeric resins such as "Diaion HP-20®" (Mitsubishi Chemical Industries Limited, Japan), "Amberlite XAD®" (Rohm and Haas Industries U.S.A.) activated charcoal or ion exchange chromatography at pH 5-8. The preferred method is adsorption over "Diaion HP-20®" followed by desorption of the compound using eluants such as water, methanol, acetone or acetonitrile or combinations thereof. Concentration and lyophilization of the active eluates gives the crude compound.
Kodaistatins A, B, C and D inhibit potently the activity of rat liver microsomal glucose-6-phosphate translocase.

phosphatase = target: T2, phosphatase (Rattus norvegicus, UniProt P43428); assay: inhibition of phosphatase activity in detergent-disrupted microsomes; assay type: biochemical; conditions: for IC50: detergent-disrupted microsomes
T2 construct: from tissue; host or cells: rat liver microsomes, detergent (Triton X-100) disrupted
T2 sequence (P43428 1-357): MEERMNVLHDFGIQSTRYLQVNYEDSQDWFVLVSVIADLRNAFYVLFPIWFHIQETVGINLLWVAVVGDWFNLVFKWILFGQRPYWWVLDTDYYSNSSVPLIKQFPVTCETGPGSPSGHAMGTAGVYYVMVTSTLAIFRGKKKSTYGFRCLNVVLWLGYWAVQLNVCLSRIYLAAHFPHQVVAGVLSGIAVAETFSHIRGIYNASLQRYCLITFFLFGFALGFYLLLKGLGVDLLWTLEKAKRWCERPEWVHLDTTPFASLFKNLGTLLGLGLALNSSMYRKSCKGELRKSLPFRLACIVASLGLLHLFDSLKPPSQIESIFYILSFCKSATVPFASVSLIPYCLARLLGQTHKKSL
Description: as §1

[2] = system: phosphate/pyrophosphate translocase; assay: effect on activity of phosphate/pyrophosphate translocase; assay type: biochemical, rat
solubility = assay type: physicochemical; conditions: solvents in which soluble
[3] = system: fructose-induced gluconeogenesis; assay: glucose output of isolated rat hepatocytes, fructose-induced gluconeogenesis; assay type: cell-based; conditions: Hepatocyte, read-out: IC50, inhibition of fructose-induced gluconeogenesis
Excerpt: (§2) Kodaistatin A was further evaluated in isolated rat hepatocytes for its effect on glucose output.

[4] = system: glucagon-induced glycogenolysis; assay: glucose output of isolated rat hepatocytes, glucagon-induced glycogenolysis; assay type: cell-based; conditions: Hepatocyte, read-out: IC50, inhibition of glucagon-induced glycogenolysis
Excerpt: as §2

[5] = rat liver microsomes, read-out: approximate IC50, glucose-6-phosphate translocase (converted)

SMILES | mode of inhibition of glucose-6-phosphate translocase [1] | IC50 ([1]; Example V, isolation and purification, read-out: IC50, glucose-6-phosphate translocase, material at stages of purification (converted)) [µM] | IC50 ([1]; rat liver microsomes, molar value in parentheses, read-out: approximate IC50, glucose-6-phosphate translocase (converted)) [µM] | IC50 [1, 5] [µM] | IC50 (phosphatase) [µM] | IC50 (phosphatase; molar value in parentheses) [µM] | specificity for translocase over phosphatase (phosphatase; translocase vs phosphatase) | effect on activity of phosphate/pyrophosphate translocase [2] | Solubility (solubility) | IC50 [3] [mg/L] | IC50 [4] [mg/L]
CCC(C)/C=C(C)/C=C/C(=O)CC1=C(c2cc(O)c(O)cc2C2=C(O)/C(=C/c3ccc(O)cc3)OC2=O)C(O)(C(C)=O)C(O)C1=O (centres unmarked) [Kodaistatin A] | reversible and competitive inhibitor | 0.317 | ~0.3 | ~0.317 | ~317 | ~300 | high degree of specificity for translocase | did not affect the activity | MeOH, CH3 CN and DMSO | ~25 (≈ 39.6 µM) | ~50 (≈ 79.3 µM)
CCC(C)C=C(C)C=CC(=O)CC1=C(c2cc(O)c(O)cc2C2=C(O)C(=Cc3ccc(O)cc3)OC2=O)C(O)(C(C)=O)C(O)C1=O (single isomer, unassigned) [Kodaistatin B] |  |  |  | ~0.476 |  |  |  |  | MeOH and DMSO |  | 
CCC(C)C=C(C)C=CC(=O)CC1=C(c2cc(O)c(O)cc2C2=C(O)C(=Cc3ccc(O)c(O)c3)OC2=O)C(O)(C(C)=O)C(O)C1=O (centres unmarked) [Kodaistatin C] |  |  |  | ~0.139 |  |  |  |  | MeOH and DMSO |  | 
CCC(C)C=C(C)C=CC(=O)CC1=C(c2cc(O)c(O)cc2C2=C(O)C(=Cc3ccc(O)c(O)c3)OC2=O)C(O)(C(C)=O)C(O)C1=O (centres unmarked) [Kodaistatin D] |  |  |  | ~0.773 |  |  |  |  | MeOH and DMSO |  | 
